Measurements taken from the NIST ThermoML archive (doi:10.1021/je900414p).

Assay: xn = mol fraction of the nth substance listed
Settings: Liquid

CCOS(=O)(=O)[O-].CCn1cc[n+](C)c1 [1-ethyl-3-methylimidazolium ethyl sulfate] + CCO
mass density [kg/m3]
Settings	100 kPa	2500 kPa	5000 kPa	10000 kPa	15000 kPa	20000 kPa	25000 kPa	30000 kPa	35000 kPa
283.15 K, x1 = 0.05056	868.1	870	871.83	875.33	878.74	882.02	885.17	888.22	891.19
283.15 K, x1 = 0.103	925.77	927.45	929.13	932.41	935.57	938.63	941.59	944.47	947.26
283.15 K, x1 = 0.1247	946.96	948.54	950.16	953.34	956.4	959.38	962.25	965.06	967.8
283.15 K, x1 = 0.2126	1015.49	1016.98	1018.48	1021.37	1024.17	1026.89	1029.52	1032.11	1034.62
283.15 K, x1 = 0.2919	1063.41	1064.67	1066.03	1068.69	1071.27	1073.82	1076.29	1078.72	1081.08
283.15 K, x1 = 0.3185	1076.89	1078.19	1079.51	1082.11	1084.66	1087.15	1089.57	1091.95	1094.27
283.15 K, x1 = 0.4198	1120.15	1121.36	1122.61	1125.05	1127.44	1129.77	1132.05	1134.29	1136.48
283.15 K, x1 = 0.4847	1142.52	1143.68	1144.88	1147.23	1149.51	1151.78	1153.99	1156.16	1158.29
283.15 K, x1 = 0.5713	1167.9	1169.02	1170.16	1172.41	1174.61	1176.78	1178.91	1181.01	1183.08
283.15 K, x1 = 0.6827	1194.68	1195.76	1196.85	1199	1201.12	1203.21	1205.24	1207.27	1209.25
283.15 K, x1 = 0.7919	1216.13	1217.15	1218.19	1220.26	1222.32	1224.34	1226.31	1228.28	1230.19
283.15 K, x1 = 0.9317	1237.97	1238.92	1239.94	1241.93	1243.92	1245.88	1247.81	1249.69	1251.56
293.15 K, x1 = 0.05056	860.03	861.91	863.83	867.52	871.06	874.47	877.74	880.91	883.98
293.15 K, x1 = 0.103	917.84	919.6	921.37	924.78	928.08	931.25	934.32	937.28	940.18
293.15 K, x1 = 0.1247	939.1	940.76	942.46	945.77	948.96	952.04	955.03	957.93	960.74
293.15 K, x1 = 0.2126	1007.62	1009.27	1010.81	1013.8	1016.71	1019.53	1022.26	1024.93	1027.53
293.15 K, x1 = 0.2919	1055.3	1056.61	1058.04	1060.8	1063.5	1066.12	1068.67	1071.18	1073.62
293.15 K, x1 = 0.3185	1069.32	1070.62	1071.98	1074.68	1077.32	1079.89	1082.37	1084.82	1087.22
293.15 K, x1 = 0.4198	1112.7	1113.96	1115.24	1117.75	1120.22	1122.63	1124.97	1127.27	1129.54
293.15 K, x1 = 0.4847	1135.13	1136.31	1137.55	1139.97	1142.34	1144.68	1146.94	1149.19	1151.37
293.15 K, x1 = 0.5713	1160.59	1161.75	1162.92	1165.25	1167.52	1169.75	1171.93	1174.07	1176.19
293.15 K, x1 = 0.6827	1187.41	1188.51	1189.64	1191.86	1194.04	1196.18	1198.27	1200.33	1202.37
293.15 K, x1 = 0.7919	1208.95	1210	1211.08	1213.21	1215.31	1217.38	1219.4	1221.4	1223.38
293.15 K, x1 = 0.9317	1230.93	1231.9	1232.97	1235.05	1237.08	1239.09	1241.05	1242.97	1244.9
298.15 K, x1 = 0.05056	855.98	857.88	859.83	863.62	867.22	870.7	874.05	877.28	880.4
298.15 K, x1 = 0.103	913.93	915.61	917.4	920.89	924.24	927.48	930.6	933.63	936.57
298.15 K, x1 = 0.1247	935.16	936.81	938.54	941.91	945.16	948.3	951.34	954.29	957.15
298.15 K, x1 = 0.2126	1003.9	1005.45	1007.01	1010.07	1013.02	1015.88	1018.67	1021.38	1024.03
298.15 K, x1 = 0.2919	1052	1052.97	1054.41	1057.22	1059.95	1062.62	1065.22	1067.75	1070.23
298.15 K, x1 = 0.3185	1065.62	1066.9	1068.3	1071.05	1073.73	1076.33	1078.88	1081.37	1083.79
298.15 K, x1 = 0.4198	1109.11	1110.35	1111.65	1114.21	1116.72	1119.15	1121.54	1123.89	1126.17
298.15 K, x1 = 0.4847	1131.56	1132.76	1133.99	1136.46	1138.86	1141.21	1143.53	1145.8	1148.02
298.15 K, x1 = 0.5713	1157.07	1158.2	1159.39	1161.74	1164.05	1166.31	1168.52	1170.7	1172.85
298.15 K, x1 = 0.6827	1183.93	1185.01	1186.16	1188.41	1190.6	1192.77	1194.89	1197	1199.05
298.15 K, x1 = 0.7919	1205.61	1206.51	1207.59	1209.76	1211.88	1213.98	1216.03	1218.05	1220.04
298.15 K, x1 = 0.9317	1227.5	1228.53	1229.57	1231.66	1233.72	1235.74	1237.73	1239.69	1241.63
303.15 K, x1 = 0.05056	851.9	853.85	855.87	859.72	863.43	866.98	870.39	873.69	876.89
303.15 K, x1 = 0.103	910.06	911.7	913.54	917.1	920.52	923.82	927	930.09	933.1
303.15 K, x1 = 0.1247	931.25	932.93	934.69	938.12	941.44	944.64	947.74	950.74	953.67
303.15 K, x1 = 0.2126	1000.1	1001.68	1003.26	1006.36	1009.37	1012.29	1015.12	1017.88	1020.58
303.15 K, x1 = 0.2919	1048.63	1049.46	1050.92	1053.74	1056.51	1059.18	1061.79	1064.33	1066.82
303.15 K, x1 = 0.3185	1061.99	1063.29	1064.7	1067.49	1070.22	1072.86	1075.44	1077.96	1080.42
303.15 K, x1 = 0.4198	1105.54	1106.82	1108.14	1110.73	1113.28	1115.76	1118.18	1120.55	1122.89
303.15 K, x1 = 0.4847	1128.01	1129.22	1130.5	1132.99	1135.43	1137.83	1140.16	1142.46	1144.71
303.15 K, x1 = 0.5713	1153.59	1154.71	1155.92	1158.31	1160.66	1162.94	1165.19	1167.4	1169.59
303.15 K, x1 = 0.6827	1180.46	1181.59	1182.73	1185	1187.24	1189.45	1191.6	1193.74	1195.84
303.15 K, x1 = 0.7919	1202.24	1203.1	1204.19	1206.38	1208.54	1210.64	1212.73	1214.77	1216.82
303.15 K, x1 = 0.9317	1224.05	1225.06	1226.12	1228.23	1230.32	1232.36	1234.37	1236.36	1238.34
